From BigSolDB 2.1

Work on O=C1OC(=O)[C@H]2[C@@H]1[C@@H]1C=C[C@H]2C1 yielded a solubility (mole fraction) (in 1,4-dioxane, 288.15 K) of 0.0718, a solubility (mole fraction) (in 1,4-dioxane, 293.15 K) of 0.0836 and a solubility (mole fraction) (in 1,4-dioxane, 298.15 K) of 0.0939. It also gave a solubility (mole fraction) (in 1,4-dioxane, 303.15 K) of 0.107, a solubility (mole fraction) (in 1,4-dioxane, 308.15 K) of 0.123 and a solubility (mole fraction) (in 1,4-dioxane, 313.15 K) of 0.136. The solubility (mole fraction) (in 1,4-dioxane, 318.15 K) was 0.154, the solubility (mole fraction) (in 1,4-dioxane, 323.15 K) was 0.173 and the solubility (mole fraction) (in DMF, 278.15 K) was 0.0809. The solubility (mole fraction) (in DMF, 283.15 K) was 0.0925, the solubility (mole fraction) (in DMF, 288.15 K) was 0.106 and the solubility (mole fraction) (in DMF, 293.15 K) was 0.12. The solubility (mole fraction) (in DMF, 298.15 K) was 0.135, the solubility (mole fraction) (in DMF, 303.15 K) was 0.152 and the solubility (mole fraction) (in DMF, 308.15 K) was 0.171. It also gave a solubility (mole fraction) (in DMF, 313.15 K) of 0.186, a solubility (mole fraction) (in DMF, 318.15 K) of 0.208 and a solubility (mole fraction) (in DMF, 323.15 K) of 0.23. For the same compound, the solubility (mole fraction) (in NMP, 278.15 K) was 0.112, the solubility (mole fraction) (in NMP, 283.15 K) was 0.126 and the solubility (mole fraction) (in NMP, 288.15 K) was 0.14. For the same compound, the solubility (mole fraction) (in NMP, 293.15 K) was 0.156, the solubility (mole fraction) (in NMP, 298.15 K) was 0.172 and the solubility (mole fraction) (in NMP, 303.15 K) was 0.19. The solubility (mole fraction) (in NMP, 308.15 K) was 0.209, the solubility (mole fraction) (in NMP, 313.15 K) was 0.225 and the solubility (mole fraction) (in NMP, 318.15 K) was 0.245. The solubility (mole fraction) (in NMP, 323.15 K) was 0.265, the solubility (mole fraction) (in acetone, 278.15 K) was 0.0395 and the solubility (mole fraction) (in acetone, 283.15 K) was 0.0475. The solubility (mole fraction) (in acetone, 288.15 K) was 0.0559, the solubility (mole fraction) (in acetone, 293.15 K) was 0.0658 and the solubility (mole fraction) (in acetone, 298.15 K) was 0.0776. The solubility (mole fraction) (in acetone, 303.15 K) was 0.0897, the solubility (mole fraction) (in acetone, 308.15 K) was 0.106 and the solubility (mole fraction) (in acetone, 313.15 K) was 0.121. It also gave a solubility (mole fraction) (in acetone, 318.15 K) of 0.138, a solubility (mole fraction) (in acetone, 323.15 K) of 0.155 and a solubility (mole fraction) (in ethanol, 278.15 K) of 0.00216. The solubility (mole fraction) (in ethanol, 283.15 K) was 0.00264, the solubility (mole fraction) (in ethanol, 288.15 K) was 0.00354 and the solubility (mole fraction) (in ethanol, 293.15 K) was 0.00441. The solubility (mole fraction) (in ethanol, 298.15 K) was 0.0056, the solubility (mole fraction) (in ethanol, 303.15 K) was 0.00699 and the solubility (mole fraction) (in ethanol, 308.15 K) was 0.00872. It also gave a solubility (mole fraction) (in ethanol, 313.15 K) of 0.0109, a solubility (mole fraction) (in ethanol, 318.15 K) of 0.0135 and a solubility (mole fraction) (in ethanol, 323.15 K) of 0.0168. The solubility (mole fraction) (in ethyl acetate, 278.15 K) was 0.0293, the solubility (mole fraction) (in ethyl acetate, 283.15 K) was 0.0338 and the solubility (mole fraction) (in ethyl acetate, 288.15 K) was 0.0413. For the same compound, the solubility (mole fraction) (in ethyl acetate, 293.15 K) was 0.0484, the solubility (mole fraction) (in ethyl acetate, 298.15 K) was 0.0535 and the solubility (mole fraction) (in ethyl acetate, 303.15 K) was 0.0632. For the same compound, the solubility (mole fraction) (in ethyl acetate, 308.15 K) was 0.0737, the solubility (mole fraction) (in ethyl acetate, 313.15 K) was 0.0838 and the solubility (mole fraction) (in ethyl acetate, 318.15 K) was 0.0969. The solubility (mole fraction) (in ethyl acetate, 323.15 K) was 0.11, the solubility (mole fraction) (in isobutyl acetate, 278.15 K) was 0.0199 and the solubility (mole fraction) (in isobutyl acetate, 283.15 K) was 0.0236. For the same compound, the solubility (mole fraction) (in isobutyl acetate, 288.15 K) was 0.0284, the solubility (mole fraction) (in isobutyl acetate, 293.15 K) was 0.0341 and the solubility (mole fraction) (in isobutyl acetate, 298.15 K) was 0.0396. The solubility (mole fraction) (in isobutyl acetate, 303.15 K) was 0.0468, the solubility (mole fraction) (in isobutyl acetate, 308.15 K) was 0.0552 and the solubility (mole fraction) (in isobutyl acetate, 313.15 K) was 0.0636. For the same compound, the solubility (mole fraction) (in isobutyl acetate, 318.15 K) was 0.0741, the solubility (mole fraction) (in isobutyl acetate, 323.15 K) was 0.0848 and the solubility (mole fraction) (in isopropyl acetate, 278.15 K) was 0.021. The solubility (mole fraction) (in isopropyl acetate, 283.15 K) was 0.0258, the solubility (mole fraction) (in isopropyl acetate, 288.15 K) was 0.03 and the solubility (mole fraction) (in isopropyl acetate, 293.15 K) was 0.0357. The solubility (mole fraction) (in isopropyl acetate, 298.15 K) was 0.0417, the solubility (mole fraction) (in isopropyl acetate, 303.15 K) was 0.0489 and the solubility (mole fraction) (in isopropyl acetate, 308.15 K) was 0.0569. For the same compound, the solubility (mole fraction) (in isopropyl acetate, 313.15 K) was 0.0661, the solubility (mole fraction) (in isopropyl acetate, 318.15 K) was 0.0768 and the solubility (mole fraction) (in isopropyl acetate, 323.15 K) was 0.0878. It also gave a solubility (mole fraction) (in methanol, 278.15 K) of 0.00403, a solubility (mole fraction) (in methanol, 283.15 K) of 0.00504 and a solubility (mole fraction) (in methanol, 288.15 K) of 0.00635. It also gave a solubility (mole fraction) (in methanol, 293.15 K) of 0.00781, a solubility (mole fraction) (in methanol, 298.15 K) of 0.0101 and a solubility (mole fraction) (in methanol, 303.15 K) of 0.0126. For the same compound, the solubility (mole fraction) (in methanol, 308.15 K) was 0.0157, the solubility (mole fraction) (in methanol, 313.15 K) was 0.0201 and the solubility (mole fraction) (in methanol, 318.15 K) was 0.0246. It also gave a solubility (mole fraction) (in methanol, 323.15 K) of 0.0311, a solubility (mole fraction) (in methyl acetate, 278.15 K) of 0.0358 and a solubility (mole fraction) (in methyl acetate, 283.15 K) of 0.0425. For the same compound, the solubility (mole fraction) (in methyl acetate, 288.15 K) was 0.0485, the solubility (mole fraction) (in methyl acetate, 293.15 K) was 0.0562 and the solubility (mole fraction) (in methyl acetate, 298.15 K) was 0.0644. It also gave a solubility (mole fraction) (in methyl acetate, 303.15 K) of 0.0754, a solubility (mole fraction) (in methyl acetate, 308.15 K) of 0.0851 and a solubility (mole fraction) (in methyl acetate, 313.15 K) of 0.0973. For the same compound, the solubility (mole fraction) (in methyl acetate, 318.15 K) was 0.11, the solubility (mole fraction) (in methyl acetate, 323.15 K) was 0.125 and the solubility (mole fraction) (in n-butyl acetate, 278.15 K) was 0.0216. The solubility (mole fraction) (in n-butyl acetate, 283.15 K) was 0.0259, the solubility (mole fraction) (in n-butyl acetate, 288.15 K) was 0.031 and the solubility (mole fraction) (in n-butyl acetate, 293.15 K) was 0.0367. It also gave a solubility (mole fraction) (in n-butyl acetate, 298.15 K) of 0.0428, a solubility (mole fraction) (in n-butyl acetate, 303.15 K) of 0.0505 and a solubility (mole fraction) (in n-butyl acetate, 308.15 K) of 0.0587. For the same compound, the solubility (mole fraction) (in n-butyl acetate, 313.15 K) was 0.0683, the solubility (mole fraction) (in n-butyl acetate, 318.15 K) was 0.0788 and the solubility (mole fraction) (in n-butyl acetate, 323.15 K) was 0.0908. The solubility (mole fraction) (in n-pentyl acetate, 278.15 K) was 0.0192, the solubility (mole fraction) (in n-pentyl acetate, 283.15 K) was 0.0231 and the solubility (mole fraction) (in n-pentyl acetate, 288.15 K) was 0.0276. The solubility (mole fraction) (in n-pentyl acetate, 293.15 K) was 0.0327, the solubility (mole fraction) (in n-pentyl acetate, 298.15 K) was 0.0388 and the solubility (mole fraction) (in n-pentyl acetate, 303.15 K) was 0.0455. For the same compound, the solubility (mole fraction) (in n-pentyl acetate, 308.15 K) was 0.0535, the solubility (mole fraction) (in n-pentyl acetate, 313.15 K) was 0.0626 and the solubility (mole fraction) (in n-pentyl acetate, 318.15 K) was 0.0726. For the same compound, the solubility (mole fraction) (in n-pentyl acetate, 323.15 K) was 0.0837, the solubility (mole fraction) (in n-propyl acetate, 278.15 K) was 0.0249 and the solubility (mole fraction) (in n-propyl acetate, 283.15 K) was 0.0303. For the same compound, the solubility (mole fraction) (in n-propyl acetate, 288.15 K) was 0.0357, the solubility (mole fraction) (in n-propyl acetate, 293.15 K) was 0.0414 and the solubility (mole fraction) (in n-propyl acetate, 298.15 K) was 0.0486. The solubility (mole fraction) (in n-propyl acetate, 303.15 K) was 0.0565, the solubility (mole fraction) (in n-propyl acetate, 308.15 K) was 0.0661 and the solubility (mole fraction) (in n-propyl acetate, 313.15 K) was 0.0761. The solubility (mole fraction) (in n-propyl acetate, 318.15 K) was 0.0878 and the solubility (mole fraction) (in n-propyl acetate, 323.15 K) was 0.101.
